Experimental data: US12084458B2, “Substituted pyridines, pyridazines, and pyrimidines as TYK2 inhibitors” (Sudo Biosciences Limited, priority 2021, dated 2024)

How the values were obtained:
[1] = target: T1, JAK3 kinase domain (JH1) (Homo sapiens, UniProt P52333); experiment: HTRF-based selectivity assay, JAK3 catalytic domain; format: biochemical; settings: recombinant catalytic domain, ATP 2.12 μM
T1 construct: recombinant purified His or GST-tagged catalytic domain for each enzyme; purchased Carna biosciences 08-046
Experimental: (§1) Example B-2: HTRF-Based Selectivity Assay
(§2) The ability of compounds to inhibit the activity of JAK1, JAK2, JAK3 and TYK2 is measured using a recombinant purified His or GST-tagged catalytic domain for each enzyme (JAK1, JAK2 and TYK2 are generated in-house; JAK3 was purchased from Carna biosciences, Cat #08-046) in an HTRF format biochemical assay. The reactions employs a commercial peptide substrate from Cisbio (Cat #62TK0PEC). The basic assay protocol is as follows: first, 2.5 μL of diluted compounds (4×) in DMSO are dispensed into a 384-well Optiplate. Next, 2.5 μL of enzyme (final concentrations for enzymes are: TYK2—700 ng/mL, JAK1—80.6 ng/mL, JAK2—2.1 ng/mL and JAK3—171.8 ng/mL) is added and incubated at RT for 5-20 min. Finally, 5 μl of mixture of 2× ATP [Final concentration 20 μM for TYK2, 21.43 μM for JAK1, 14.7 μM for JAK2 and 2.12 μM for JAK3]+2× Substrate [Final concentration 217 nM for TYK2, 454.7 nM for JAK1, 200 nM for JAK2 and 257.4 nM for JAK3] is added to 384 well Optiplate. Composition of Kinase assay buffer used in the assay is as follows: HEPES 50 mM, EGTA 1 mM, MgCl2 10 mM, DTT 2 mM, Tween-20 0.01% and water. Then the plates are shaken and then incubated at 26.5° C. for 60 min.

[2] = system: HEK-Blue IL-2 reporter cells (IL-2-stimulated STAT5 SEAP reporter); experiment: HEK-Blue IL-2 SEAP reporter assay for determining selectivity; format: cell-based; settings: 4 ng/mL human recombinant IL-2
How it was run: (§3)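 Cells were plated for 20-22 h, then pretreated with serially diluted compound for 60 min. They were stimulated for 24 h with 4 ng/mL human recombinant IL-2 or 50 ng/mL human recombinant IFNγ, and SEAP induction was read with QUANTI-Blue.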

[3] = system: HEK-Blue IFNα/β cells (IFNα-stimulated STAT1 SEAP reporter; TYK2 JH2); experiment: HEK-Blue IFNα/β SEAP reporter assay for profiling TYK2 pseudokinase (JH2) inhibition; format: cell-based; settings: Homo sapiens, HEK-Blue, 1 ng/mL human recombinant IFNα, read-out: IFNα (TYK2 inhibitory activity, IC50)
How it was run: (§4)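 Serial compound dilutions preincubated 60 min with cells. IL-23: 10 ng/mL, 22-24 h. IFNα: 1 ng/mL, 16-18 h. QUANTI-Blue SEAP detection.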

[4] = system: HEK-Blue IFNγ reporter cells (IFNγ-stimulated STAT1 SEAP reporter); experiment: HEK-Blue IFNγ SEAP reporter assay for determining selectivity; format: cell-based; settings: Homo sapiens, HEK-Blue, 50 ng/mL human recombinant IFNγ, read-out: IFN-γ (SEAP selectivity, IC50)
How it was run: as §3

[5] = target: T2, TYK2 kinase domain (JH1) (Homo sapiens, UniProt P29597); experiment: HTRF-based selectivity assay, TYK2 catalytic domain; format: biochemical; settings: recombinant catalytic domain, ATP 20 μM
T2 construct: recombinant purified His or GST-tagged catalytic domain for each enzyme; made in house
T2 sequence (P29597 897-1176 limits assumed): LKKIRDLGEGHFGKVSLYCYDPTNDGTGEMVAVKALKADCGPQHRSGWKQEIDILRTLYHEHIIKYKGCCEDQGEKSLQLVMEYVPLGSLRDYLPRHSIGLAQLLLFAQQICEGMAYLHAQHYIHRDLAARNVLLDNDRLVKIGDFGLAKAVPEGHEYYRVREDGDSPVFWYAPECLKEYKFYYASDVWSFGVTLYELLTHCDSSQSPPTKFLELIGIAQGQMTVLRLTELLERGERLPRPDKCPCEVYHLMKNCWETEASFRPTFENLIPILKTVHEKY
Experimental: as §1, §2

[6] = system: HEK-Blue IL-23 cells (IL-23-stimulated STAT3 SEAP reporter; TYK2 JH2); experiment: HEK-Blue IL-23 SEAP reporter assay for profiling TYK2 pseudokinase (JH2) inhibition; format: cell-based; settings: 10 ng/mL human recombinant IL-23, SEAP reporter, read-out: IL23 (TYK2 inhibitory activity, IC50)
How it was run: as §4

[7] = target: T3, JAK2 kinase domain (JH1) (Homo sapiens, UniProt O60674); experiment: HTRF-based selectivity assay, JAK2 catalytic domain; format: biochemical; settings: recombinant catalytic domain, ATP 14.7 μM
T3 construct: recombinant purified His or GST-tagged catalytic domain for each enzyme; made in house
Experimental: as §1, §2

[8] = target: T4, JAK1 kinase domain (JH1) (Homo sapiens, UniProt P23458); experiment: HTRF-based selectivity assay, JAK1 catalytic domain; format: biochemical; settings: recombinant catalytic domain, ATP 21.43 μM
T4 construct: recombinant purified His or GST-tagged catalytic domain for each enzyme; made in house
Experimental: as §1, §2

T3 sequence (O60674 849-1124 limits assumed): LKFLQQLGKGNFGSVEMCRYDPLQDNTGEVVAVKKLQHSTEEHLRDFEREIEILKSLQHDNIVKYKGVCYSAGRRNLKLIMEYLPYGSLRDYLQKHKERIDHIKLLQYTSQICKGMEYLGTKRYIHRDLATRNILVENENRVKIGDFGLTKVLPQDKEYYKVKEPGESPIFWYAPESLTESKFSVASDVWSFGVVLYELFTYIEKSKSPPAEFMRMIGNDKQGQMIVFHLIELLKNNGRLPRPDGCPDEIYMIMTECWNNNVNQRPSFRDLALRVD
T4 sequence (P23458 875-1153 limits assumed): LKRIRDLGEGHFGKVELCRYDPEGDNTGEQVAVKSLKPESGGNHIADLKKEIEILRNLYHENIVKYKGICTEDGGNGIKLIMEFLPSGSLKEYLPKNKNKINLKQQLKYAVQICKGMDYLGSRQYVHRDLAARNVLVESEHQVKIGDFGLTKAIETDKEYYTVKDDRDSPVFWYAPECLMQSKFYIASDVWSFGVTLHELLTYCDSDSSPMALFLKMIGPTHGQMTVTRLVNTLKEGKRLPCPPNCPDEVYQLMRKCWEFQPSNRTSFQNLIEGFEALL
T1 sequence (P52333 822-1111 limits assumed): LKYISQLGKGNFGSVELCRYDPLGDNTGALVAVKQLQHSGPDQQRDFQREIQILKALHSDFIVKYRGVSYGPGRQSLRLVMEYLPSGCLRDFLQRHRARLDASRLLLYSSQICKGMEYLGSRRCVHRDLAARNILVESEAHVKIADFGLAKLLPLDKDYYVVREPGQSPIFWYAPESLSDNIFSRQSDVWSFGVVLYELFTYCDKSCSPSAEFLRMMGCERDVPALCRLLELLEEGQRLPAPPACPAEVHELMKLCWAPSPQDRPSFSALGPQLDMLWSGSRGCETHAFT

IC50 [1] | IC50 [5] | IC50 [7] | IC50 [8] | Compound | IC50 [2] | IC50 [3] | IC50 [4] | IC50 [6]
> 1000 nM | > 1000 nM | > 1000 nM | > 1000 nM | [2H]C([2H])([2H])NC(=O)c1nnc(NC(=O)C2CC2)cc1Nc1cccc2c1N(C)Cc1nc(C)nn1-2 [Compound 5, 6-(cyclopropanecarboxamido)-4-((2,5-dimethyl-4,5-dihydro-[1,2,4]triazolo[1,5-a]quinoxalin-6-yl)amino)-N-(methyl-d3)pyridazine-3-carboxamide] | > 1000 nM | < 30 nM | 30 to 300 nM | < 30 nM
> 1000 nM | > 1000 nM | > 1000 nM | > 1000 nM | [2H]C([2H])([2H])NC(=O)c1nnc(Nc2ccc(C(F)(F)F)cn2)cc1Nc1cccc2c1N(C)Cc1nc(C)nn1-2 [Compound 10, 4-((2,5-dimethyl-4,5-dihydro-[1,2,4]triazolo[1,5-a]quinoxalin-6-yl)amino)-N-(methyl-d3)-6-((5-(trifluoromethyl)pyridin-2-yl)amino)pyridazine-3-carboxamide] | > 1000 nM | 30 to 300 nM | – | < 30 nM
> 1000 nM | > 1000 nM | > 1000 nM | > 1000 nM | [2H]C([2H])([2H])NC(=O)c1nnc(Nc2ccc(C#N)cn2)cc1Nc1cccc2c1N(C)Cc1nc(C)nn1-2 [Compound 13, 6-((5-cyanopyridin-2-yl)amino)-4-((2,5-dimethyl-4,5-dihydro-[1,2,4]triazolo[1,5-a]quinoxalin-6-yl)amino)-N-(methyl-d3)pyridazine-3-carboxamide] | > 1000 nM | < 30 nM | – | < 30 nM
> 1000 nM | – | > 1000 nM | > 1000 nM | [2H]C([2H])([2H])NC(=O)c1nnc(NC(=O)C2CC2)cc1Nc1cccc2c1N(C)Cc1nn(C)nc1-2 [Compound 46, 6-(cyclopropanecarboxamido)-4-((2,5-dimethyl-4,5-dihydro-2H-[1,2,3]triazolo[4,5-c]quinolin-6-yl)amino)-N-(methyl-d3)pyridazine-3-carboxamide] | > 1000 nM | < 30 nM | 30 to 300 nM | < 30 nM
> 1000 nM | > 1000 nM | > 1000 nM | > 1000 nM | [2H]C([2H])([2H])NC(=O)c1nnc(Nc2ccc(C)cn2)cc1Nc1cccc2c1N(C)Cc1nc(C)nn1-2 [Compound 11, 4-((2,5-dimethyl-4,5-dihydro-[1,2,4]triazolo[1,5-a]quinoxalin-6-yl)amino)-N-(methyl-d3)-6-((5-methylpyridin-2-yl)amino)pyridazine-3-carboxamide] | – | < 30 nM | – | < 30 nM
> 1000 nM | > 1000 nM | > 1000 nM | > 1000 nM | [2H]C([2H])([2H])NC(=O)c1cnc(NC(=O)C2CC2)cc1Nc1cccc2c1N(C)CCn1cnnc1-2 [Compound 78, 6-(cyclopropanecarboxamido)-N-(methyl-d3)-4-((7-methyl-6,7-dihydro-5H-benzo[f][1,2,4]triazolo[4,3-d][1,4]diazepin-8-yl)amino)nicotinamide] | – | > 1000 nM | – | 30 to 300 nM
> 1000 nM | > 1000 nM | > 1000 nM | > 1000 nM | [2H]C([2H])([2H])NC(=O)c1cnc(NC(=O)C2CC2)cc1Nc1cccc2c1N(C)C([2H])([2H])c1nn(C)nc1-2 [Compound 52, 6-(cyclopropanecarboxamido)-4-((2,5-dimethyl-4,5-dihydro-2H-[1,2,3]triazolo[4,5-c]quinolin-6-yl-4,4-d2)amino)-N-(methyl-d3)nicotinamide] | > 1000 nM | < 30 nM | – | < 30 nM
> 1000 nM | > 1000 nM | – | > 1000 nM | [2H]C([2H])([2H])NC(=O)c1cnc(NC(=O)C2CC2)cc1Nc1cccc2c1N(C)Cc1nc(C)nn1-2 [Compound 4, 6-(cyclopropanecarboxamido)-4-((2,5-dimethyl-4,5-dihydro-[1,2,4]triazolo[1,5-a]quinoxalin-6-yl)amino)-N-(methyl-d3)nicotinamide] | > 1000 nM | < 30 nM | 300 to 1000 nM | < 30 nM
> 1000 nM | > 1000 nM | – | > 1000 nM | [2H]C([2H])([2H])NC(=O)c1cnc(NC(=O)C2CC2)cc1Nc1cccc2c1N(C([2H])([2H])[2H])Cc1nn(C)nc1-2 [Compound 47, 6-(cyclopropanecarboxamido)-N-(methyl-d3)-4-((2-methyl-5-(methyl-d3)-4,5-dihydro-2H-[1,2,3]triazolo[4,5-c]quinolin-6-yl)amino)nicotinamide] | > 1000 nM | < 30 nM | 30 to 300 nM | < 30 nM
> 1000 nM | > 1000 nM | > 1000 nM | > 1000 nM | [2H]C([2H])([2H])NC(=O)c1nnc(Nc2ccc(F)cn2)cc1Nc1cccc2c1N(C)Cc1nc(C)nn1-2 [Compound 12, 4-((2,5-dimethyl-4,5-dihydro-[1,2,4]triazolo[1,5-a]quinoxalin-6-yl)amino)-6-((5-fluoropyridin-2-yl)amino)-N-(methyl-d3)pyridazine-3-carboxamide] | 30 to 300 nM | < 30 nM | – | < 30 nM
> 1000 nM | – | > 1000 nM | > 1000 nM | [2H]C([2H])([2H])NC(=O)c1cnc(NC(=O)C2CC2)cc1Nc1cccc2c1N(C)Cc1nn(C)nc1-2 [Compound 45, 6-(cyclopropanecarboxamido)-4-((2,5-dimethyl-4,5-dihydro-2H-[1,2,3]triazolo[4,5-c]quinolin-6-yl)amino)-N-(methyl-d3)nicotinamide] | > 1000 nM | < 30 nM | 30 to 300 nM | < 30 nM
> 1000 nM | > 1000 nM | > 1000 nM | > 1000 nM | [2H]C([2H])([2H])NC(=O)c1cnc(NC(=O)C2CC2)cc1Nc1nccc2c1N(C)Cc1nn(C)nc1-2 [Compound 89, 6-(cyclopropanecarboxamido)-4-((2,5-dimethyl-4,5-dihydro-2H-[1,2,3]triazolo[4,5-c][1,7]naphthyridin-6-yl)amino)-N-(methyl-d3)nicotinamide] | > 1000 nM | < 30 nM | – | < 30 nM
> 1000 nM | > 1000 nM | > 1000 nM | > 1000 nM | [2H]C([2H])([2H])NC(=O)c1nnc(NC(=O)[C@H]2C[C@H]2F)cc1Nc1cccc2c1N(C)Cc1nc(C)nn1-2 (single isomer, unassigned) [Compound 8] | > 1000 nM | 30 to 300 nM | – | < 30 nM
– | > 1000 nM | > 1000 nM | > 1000 nM | [2H]C([2H])([2H])NC(=O)c1nnc(NC(=O)C2CC2)cc1Nc1nccc2c1N(C)Cc1nn(C)nc1-2 [Compound 88, 6-(cyclopropanecarboxamido)-4-((2,5-dimethyl-4,5-dihydro-2H-[1,2,3]triazolo[4,5-c][1,7]naphthyridin-6-yl)amino)-N-(methyl-d3)pyridazine-3-carboxamide] | 300 to 1000 nM | < 30 nM | 30 to 300 nM | < 30 nM
